# Results from ChEMBL document CHEMBL1153038, “Eusynstyelamides A, B, and C, nNOS inhibitors, from the ascidian Eusynstyela latericius” (J Nat Prod, 2009).
# How the values were obtained:
# [1] = tested on: HCT-116; experiment: Cytotoxicity against human HCT116 cells; type: functional, cell-based
# [2] = tested on: MCF7; experiment: Cytotoxicity against human MCF7 cells upto […] by SRB assay; type: functional, cell-based
# [3] = tested on: SF-268; experiment: Cytotoxicity against human SF268 cells upto […] by SRB assay; type: functional, cell-based
# [4] = tested on: NCI-H460; experiment: Cytotoxicity against human H460 cells upto […] by SRB assay; type: functional, cell-based
# [5] = biological target: Nitric oxide synthase 1 (Rattus norvegicus, UniProt P29476); experiment: Inhibition of rat cerebella nNOS synthase assessed as [3H]arginine to [3H]citrulline conversion by microbeta scintillation counting
# Sequence of Nitric oxide synthase 1 (P29476 whole entry): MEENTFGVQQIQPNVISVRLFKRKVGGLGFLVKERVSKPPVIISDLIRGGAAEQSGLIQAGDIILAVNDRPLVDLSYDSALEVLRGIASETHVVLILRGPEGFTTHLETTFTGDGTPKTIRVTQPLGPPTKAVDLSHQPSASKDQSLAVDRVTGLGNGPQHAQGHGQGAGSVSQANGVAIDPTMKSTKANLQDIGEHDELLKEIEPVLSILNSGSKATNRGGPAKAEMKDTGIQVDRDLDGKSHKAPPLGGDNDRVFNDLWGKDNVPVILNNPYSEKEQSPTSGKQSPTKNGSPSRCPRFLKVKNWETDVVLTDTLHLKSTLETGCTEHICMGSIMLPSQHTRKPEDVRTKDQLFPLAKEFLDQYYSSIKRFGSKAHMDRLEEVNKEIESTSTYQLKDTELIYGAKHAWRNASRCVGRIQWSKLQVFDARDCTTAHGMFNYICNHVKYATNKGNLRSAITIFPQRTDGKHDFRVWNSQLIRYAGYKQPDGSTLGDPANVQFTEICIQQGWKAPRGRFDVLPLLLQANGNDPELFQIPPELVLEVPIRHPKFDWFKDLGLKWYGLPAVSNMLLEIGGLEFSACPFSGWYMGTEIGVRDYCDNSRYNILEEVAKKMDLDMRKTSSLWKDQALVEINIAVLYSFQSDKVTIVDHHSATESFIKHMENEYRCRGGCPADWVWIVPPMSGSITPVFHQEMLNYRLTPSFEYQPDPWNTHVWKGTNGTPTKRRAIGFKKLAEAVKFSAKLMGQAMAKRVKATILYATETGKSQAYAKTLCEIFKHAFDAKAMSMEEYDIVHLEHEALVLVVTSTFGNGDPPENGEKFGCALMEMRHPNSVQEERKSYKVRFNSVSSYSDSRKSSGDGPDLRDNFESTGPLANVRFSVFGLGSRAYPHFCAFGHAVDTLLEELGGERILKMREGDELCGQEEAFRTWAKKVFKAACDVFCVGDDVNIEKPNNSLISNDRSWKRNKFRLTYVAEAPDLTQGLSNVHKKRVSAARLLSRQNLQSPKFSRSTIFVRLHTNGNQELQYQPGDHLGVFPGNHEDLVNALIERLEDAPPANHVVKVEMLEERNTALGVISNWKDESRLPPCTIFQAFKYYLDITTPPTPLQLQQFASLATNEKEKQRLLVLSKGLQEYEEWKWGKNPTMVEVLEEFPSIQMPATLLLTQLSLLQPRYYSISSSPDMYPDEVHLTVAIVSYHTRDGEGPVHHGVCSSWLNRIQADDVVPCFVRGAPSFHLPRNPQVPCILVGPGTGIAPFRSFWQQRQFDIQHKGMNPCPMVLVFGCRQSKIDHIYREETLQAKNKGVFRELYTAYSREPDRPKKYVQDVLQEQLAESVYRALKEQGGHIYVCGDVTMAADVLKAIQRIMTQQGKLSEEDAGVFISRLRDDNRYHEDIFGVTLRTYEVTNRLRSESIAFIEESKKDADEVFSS
# [6] = tested on: Staphylococcus aureus; experiment: Antibacterial activity against Staphylococcus aureus after 24 hrs by microtiter dilution assay; type: functional, organism-based
IC50 [5] [µM],Compound,IC50 [1] [µM],Activity [2],Activity [3],Activity [4],IC50 [6] [µM]
–,CC(=O)NCCc1cc(O)c2nccc3c2c1Nc1ccccc1-3 [STYELSAMINE B],1.6,–,–,–,–
5.8,N=C(N)NCCCCNC(=O)[C@@]1(O)[C@H](c2c[nH]c3cc(Br)ccc23)[C@](O)(Cc2c[nH]c3cc(Br)ccc23)C(=O)N1CCCCNC(=N)N,–,Not toxic,Not toxic,Not toxic,–
–,NCC(O)c1cc(O)c2nccc3c2c1Nc1ccccc1-3 (centres undefined) [STYELSAMINE A],1.6,–,–,–,–
–,N=C(N)NCCCCNC(=O)C(O)(O)C(c1c[nH]c2cc(Br)ccc12)C(O)(Cc1c[nH]c2cc(Br)ccc12)C(=O)NCCCCNC(=N)N (centres undefined) [EUSYNSTYELAMIDE],100,–,–,–,–
4.3,N=C(N)NCCCCNC(=O)[C@@]1(O)[C@H](c2c[nH]c3cc(Br)ccc23)[C@@](O)(Cc2c[nH]c3cc(Br)ccc23)C(=O)N1CCCCNC(=N)N,–,Not toxic,Not toxic,Not toxic,6.5
–,O=Cc1cc(O)c2nccc3c2c1Nc1ccccc1-3 [STYELSAMINE C],1.6,–,–,–,–
–,NCCc1cc(O)c2nccc3c2c1Nc1ccccc1-3 [STYELSAMINE D],1.6,–,–,–,–
41.7,N=C(N)NCCCCNC(=O)[C@]1(O)[C@H](c2c[nH]c3cc(Br)ccc23)[C@@](O)(Cc2c[nH]c3cc(Br)ccc23)C(=O)N1CCCCNC(=N)N,–,Not toxic,Not toxic,Not toxic,19
